Earlier results as cited in paper PMC6738130 (OncoTargets and therapy, 2019).

Legend:
[1] = driven by mitochondrial inner membrane potential (ΔΨ=140–180 mV)
[2] = tested on: tumor; conditions: 5 nmol/kg SkQ1 per day in drinking water

| Structure (SMILES) | Accumulation into the mitochondrial matrix [1] | Effect on level of ROS and tumor formation [2] |
| --- | --- | --- |
| COC1=C(OC)C(=O)C(CCCCCCCCCC[P+](c2ccccc2)(c2ccccc2)c2ccccc2)=C(C)C1=O [MitoQ, mitoquinone] | several hundred-fold | – |
| CC1=C(C)C(=O)C(CCCCCCCCCC[P+](c2ccccc2)(c2ccccc2)c2ccccc2)=CC1=O.[Br-] [SkQ1] | – | reduced the level of ROS prevented the formation of a tumor |
